Data on one compound can be found in article PMC4116524, “A virtual screen identified C96 as a novel inhibitor of phosphatidylinositol 3-kinase that displays potent preclinical activity against multiple myeloma in vitro and in vivo” (Oncotarget, 2014).

In one data set the test system is OPM2 cells. The experiment in a line: Cell migration analysis by the transwell assay. The data set is classed as cell-based. Particulars: 6 hrs. How it is done: Next, we evaluated the effects of C96 on MM cell growth by measuring viable cells after starvation/IGF-1 stimulation in the presence of C96. As shown in Supplemental Figure 2A, IGF-1 stimulated MM cell growth, but it was suppressed by C96. We also examined the effects of C96 on MM cell migration upon IGF-1 stimulation.
This assay was performed as described previously. Briefly, MM cells OPM2, JJN3 and LP1 were serum starved overnight and then re-suspended in 70 μL of IMDM medium/0.5% fetal calf serum with or without C96. These cells were then loaded onto polycarbonate membranes (8-μm pore size) separating 2 chambers of a transwell (Corning Costar, Cambridge, MA). Medium/0.1% FCS (500 μL) containing agonist IGF-1 was added to the lower chamber of the Transwell cluster plates. After 6 hrs, cells migrating into the lower chamber were counted using a hemacytometer.
Supplementary Figure S2: C96 inhibits MM cell proliferation and migration in the presence of IGF-1. […] Cells were then incubated for another 24 hr, cell number was analyzed using MTT staining. […] Cells were loaded onto the upper chamber of a transwell, and the lower chamber was filled with IMDM containing agonist IGF-1.After 6 hrs, cells migrating into the lower chamber were counted using a hemacytometer. […]

For a further data set, the system named is JJN3 xenograft. In words: Myeloma xenograft study. The data set is classed as in vivo, nude mice. On the procedure: To further evaluate the anti-myeloma efficacy of C96 in vivo, a human multiple myeloma xenograft model was established by subcutaneous injection of JJN3 into nude mice. When these tumors were palpable, mice were randomly divided into two groups (n=5) and one of them were orally administrated C96 (100 mg/kg body weight, 1/10 of the oral LD50), the other one were given the same volume of vehicle on a daily base for continued 16 days. Tumor sizes and body weight were monitored every other day. […] In contrast, the tumors in the vehicle group grew in a steady rate.
Figure 7 C96 delays myeloma tumor growth in a xenograft mouse model (A) JJN3 cells were injected subcutaneously into nude mice with a density of 30 million cells/site/mouse. When tumors were palpable, mice (n=5/group) were orally given C96 (100 mg/kg body weight) in PBS containing 10% Tween 80 and 10% DMSO daily for continuous 16 days. Tumor volumes were monitored every other day. (B) Mouse body weight was monitored every other day. (C) At the end of the experiment, tumor samples from each group were subjected to immunoblotting analysis for the expression levels of p-AKT, T-AKT, p-mTOR and mTOR with specific antibodies. GAPDH was used as a loading control.
JJN3 cells (30 million cells/injection) were inoculated s.c. into the right flanks of nude mice (5-6 weeks old, female, Shanghai Slac Laboratory Animal Co. Ltd., Shanghai). When tumors were palpable, mice were randomly divided into two groups (n=5). One group was orally administrated C96 (100 mg/kg body weight, or 1/10 oral LD50) dissolved in PBS containing 10% Tween 80 and DMSO daily for continued 16 days, another group was received the vehicle only. Tumor sizes were measured every other day with a caliper and calculated according to the formula (V=0.5236a²b, where a is the smallest superficial diameter and b is the largest superficial diameter). Body weight of each mouse was also monitored. At the end of the experiment, mice were sacrificed in a CO2 chamber containing dry ice. Tumor tissues were then excised, weighed, and snap-frozen in liquid nitrogen for further studies. To examine protein expression, tumor tissues were minced and ultrasonicated in the lysis buffer to extract proteins, which were further applied for immunoblotting analyses using specific antibodies against AKT, p-AKT, p-mTOR, mTOR, and GAPDH. This xenograft study was carried out in accordance with The Code of Ethics of the World Medical Association (Declaration of Helsinki) for experiments in animals and it was approved by the Animal Ethics and Welfare Review Board of Soochow University.

In data set [1] the test system is AKT phosphorylation in LP1 cells. The experiment in a line: IGF-1-stimulated AKT phosphorylation, immunoblotting. The class given is cell-based. The note with it: for decrease in AKT phosphorylation: LP1 cells, 2-hr treatment, IGF-1 15 min. How it is done:
MM cell lines LP1 and OPM2 were starved overnight before being treated with C96 (0–100 μM) or S14161 (100 μM, a positive control) for a short period (2 hrs), followed by IGF-1 stimulation for 15 min. […] (Figure 2A). In LP1 cells, C96 at 25 μM and 50 μM led to a 50% and 90% decrease in AKT phosphorylation, respectively, in the 2-hr treatment. […] In the time-course study, AKT activation was suppressed by C96 at 50 μM within 0.5 hrs (30 min) (Figure 2B).
Figure 2 C96 inhibits AKT and mTOR signaling (A) LP1 and OPM2 were starved overnight, then treated with C96 at the indicated concentrations, or 100 μM of S14161 for 2 hrs, followed by IGF-1 (100 ng/mL) for 15 min. Cells were collected for the analysis of the expression of p-AKT and total AKT (T-AKT) by immunoblotting. (B) LP1 and OPM2 cells were starved overnight, then treated with C96 (50 μM) for different time periods, or S14161 (100 (μM) for 2 hrs, followed by IGF-1 (100 ng/mL) for 15 min. Cells were for the analysis of the expression of p-AKT and T-AKT by immunoblotting. (C) LP1, OPM2, and JJN3 cells were treated with C96 at the indicated concentrations for 24 hrs. Cell lysates were prepared and subjected to immunoblotting assay against p-AKT, AKT, p-mTOR, mTOR, p-4E-BP1, and 4E-BP1. GAPDH was used as a loading control.
Cells were treated with or without C96 for 24 hrs before being applied to lysate preparation in a lysis buffer (50 mM Tris-HCI, pH 7.4, 1% NP-40, 0.5% Na-deoxycholate, and 0.1% SDS, 150 mM NaCl, 2 mM EDTA, 2 mM Na3VO4, and 5 mM NaF). Equal amounts (30 μg) of total proteins were subjected to sodium dodecyl sulfate–polyacrylamide gel electrophoresis (SDS-PAGE) separation, followed by immunoblotting analyses with specific antibodies. Antibodies against PARP, caspase-3, AKT, p-AKT(S473), 4E-BP1, p-4E-BP1(S65), IGF-1R, p-IGF-1R, ERK(p42/p44), and p-ERK(p42/p44) were purchased from Cell Signaling Technologies. Antibodies against mTOR, p-mTOR(S2448), p70S6K, p-p70S6K(S424), and GAPDH were obtained from Abgent (Suzhou, China). Horseradish peroxidase-conjugate secondary antibodies against mouse or rabbit and GAPDH were purchased from Abgent. All immunoblotting signals were further analyzed with Quality One Quality One software (Bio-Rad, Berkeley, CA, USA).
On the technique in general: Immunoblotting shows a protein as a band on a membrane.

Molecules are shown by their SMILES. “Also recorded” adds a separate entry of the source. Bounds are passed on as bounds.

In the case of `O=C1NC(=O)C(=CC=Cc2cccs2)C(=O)N1` [C96, 5-(3-(2-thienyl)-2-propen-1-ylidene)-2,4,6(1H,3H,5H)-pyrimidinetrione], the “migration through 8-micrometer transwell membrane in the presence of IGF-1” value with OPM2 cells is listed as “partly suppressed”. Moreover, in the data set with JJN3 xenograft (100 mg/kg oral daily, 16-day treatment), the “effects on body weight” value is recorded as “minimal effects”. In the data set on JJN3 xenograft (100 mg/kg oral daily, 16 days), the gross toxicity result was “no gross toxicity” and the tumor growth result is “almost fully suppressed tumor growth; also recorded: delayed MM tumor growth”. For the same compound, the tumor growth suppression entry in the data set with JJN3 xenograft (100 mg/kg oral daily, within 16 days) is “more than 90%”. Besides, in the data set on JJN3 xenograft (tumors excised at end of experiment, immunoblotting), the “AKT and mTOR phosphorylation in myeloma tumor tissues” value is reported as “decreased”. Also, in “Oral LD50”, the “100 mg/kg body weight dose as fraction of the oral LD50” value was 1/10. Also, the “time within which AKT activation was suppressed” value in data set [1] (50 μM, time-course study, LP1 and OPM2 (Figure 2B)) is no more than 0.5 h. In addition, the “decrease in AKT phosphorylation” value in data set [1] (25 μM) is 50%. In data set [1] (50 μM), the “decrease in AKT phosphorylation” value is 90%.
